From PubChem BioAssay (NCI)
Values joined by “and” are separate entries in the source; they are usually repeats but may differ in a detail not shown here. Equal entries are not always repeated.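 Assay format: 96-well plates, 48-hour exposure. GI50 = concentration required for 50% inhibition of growth. TGI marks complete inhibition of growth.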

Key:
Experiment in all cases: growth of human tumour cells (NCI), 48 h
HCC-2998 colon = tested on: HCC-2998 colon
SK-MEL-28 melanoma = tested on: SK-MEL-28 melanoma
HL-60(TB) leukemia = tested on: HL-60(TB) leukemia
SW-620 colon = tested on: SW-620 colon
SF-539 CNS = tested on: SF-539 CNS
K-562 leukemia = tested on: K-562 leukemia
HT29 colon = tested on: HT29 colon
COLO 205 colon = tested on: COLO 205 colon
NCI-H226 lung = tested on: NCI-H226 lung
NCI/ADR-RES ovarian = tested on: NCI/ADR-RES ovarian

SMILES | GI50 (HCC-2998 colon) [µM] | TGI (HCC-2998 colon) | GI50 (SK-MEL-28 melanoma) [µM] | TGI (SK-MEL-28 melanoma) | GI50 (HL-60(TB) leukemia) [µM] | TGI (HL-60(TB) leukemia) | GI50 (SW-620 colon) | TGI (SW-620 colon) | GI50 (SF-539 CNS) [µM] | TGI (SF-539 CNS) | GI50 (K-562 leukemia) | TGI (K-562 leukemia) [µM] | GI50 (HT29 colon) [µM] | TGI (HT29 colon) | GI50 (COLO 205 colon) | TGI (COLO 205 colon) | GI50 (NCI-H226 lung) | TGI (NCI-H226 lung) | GI50 (NCI/ADR-RES ovarian) | TGI (NCI/ADR-RES ovarian)
CC(C)(C)C[C@H]1NC(C(=O)NCC[C@H](O)CO)[C@H](c2cccc(Cl)c2)[C@@]12C(=O)Nc1cc(Cl)c(F)cc12 (some centres not stated) | 16.2 | 31.1 µM | 15.9 | 30.5 µM | 14.7 | 40.1 µM | 16.6 µM | 34.1 µM | 15.5 | 31.8 µM | 14.8 µM | 43.6 | 17 | 32.4 µM | 16.1 µM | 30.7 µM | 2.46 µM | 14.1 µM | 37 µM | > 100 µM
COc1cccc(/C=C/C(=O)c2cccc(Nc3nc(Nc4ccccc4)nc(Nc4ccccc4)n3)c2)c1 | 7.35 | 26.2 µM | 20.8 | 56.2 µM | 10.5 | 43.6 µM | 3.68 µM | > 48.3 µM | 15.6 | 34.4 µM | 3.96 µM | 45.8 | 4.36 | > 81.7 µM | 10.5 µM | 42.3 µM | 24.2 µM | > 67.9 µM | 27.3 µM | > 100 µM
COC(=O)[C@H](Cc1cn(C)cn1)NC(=O)[C@H](Cc1c[nH]c2ccccc12)NC(=O)Nc1cc(C(F)(F)F)cc(C(F)(F)F)c1 | > 10 | > 10 µM | > 10 | > 10 µM | > 10 | > 10 µM | > 10 µM | > 10 µM | > 10 | > 10 µM | > 10 µM | > 10 | > 10 | > 10 µM | > 10 µM | > 10 µM | > 10 µM | > 10 µM | > 10 µM | > 10 µM
COc1cc(Cl)cc(-c2nn(C(=O)NCCN3CCOCC3)cc2-c2ccncc2)c1 | 7.77 | 39.7 µM | 4.6 | 66 µM | 3.22 | 95.1 µM | 4.28 µM | 32.7 µM | 4.57 | 25.9 µM | 4.12 µM | > 100 | 3.98 | > 100 µM | 3.16 µM | 11.2 µM | 7.2 µM | 48.9 µM | 2.87 µM | > 100 µM
CCN1C(=O)N(CC)C2C1NN=c1s/c(=C\c3cccnc3)c(=O)n12 (configuration not stated) | 1.29 | > 100 µM | 0.957 | > 100 µM | 0.395 | – | 0.393 µM | > 100 µM | 0.319 | 2.51 µM | 0.3 µM | > 100 | 0.386 | > 100 µM | 0.392 µM | > 53.3 µM | 1.1 µM | > 100 µM | 0.38 µM | > 100 µM
COc1c(CCC[P+](c2ccccc2)(c2ccccc2)c2ccccc2)cc2c(c1OC)OCO2 | 2.22 | 14.6 µM | 0.769 | 14.8 µM | 0.339 | 1.48 µM | 1.93 µM | 11.1 µM | 2.1 | 13.7 µM | 0.529 µM | > 100 | 1.08 | 18.8 µM | 1.21 µM | 5.71 µM | 3.3 µM | 42.2 µM | > 100 µM | > 100 µM
COc1cc(C2c3cc4c(cc3[C@@H](Nc3ccc(C#N)cc3)C3COC(=O)[C@H]23)OCO4)cc(OC)c1O (some centres not stated) | 1.02 | 5.11 µM and 2.11 µM | 2.89 | 28.2 µM and > 100 µM | – | 1.12 µM and 0.702 µM | 0.781 µM and 0.263 µM | 50 µM and 75 µM and 11.4 µM | 0.431 | 11.3 µM and 3.64 µM | 0.987 µM and 1.85 µM | – | 1.61 | 11.6 µM and 14 µM | 1.98 µM and 1.38 µM | 13 µM and 8.41 µM and 11.5 µM | 0.239 µM and 0.242 µM | 3.46 µM and 1.43 µM and 2.06 µM | 6.59 µM and 2.68 µM | 11.6 µM and 41.3 µM and 21.2 µM
COc1ccc(N2C(C)=C(C#N)C34C(=O)N(c5ccccc5)C(=O)C3=C(O)C=CC24O)cc1 (configuration not stated) | 9.88 | 23.6 µM | 12 | 30.1 µM | 15.5 | 65.9 µM | 10.3 µM | 24.6 µM | 6.82 | 25.3 µM | 28.3 µM | > 100 | 12.3 | 28.3 µM | 10.8 µM | 23.2 µM | 13.5 µM | 35.1 µM | 29 µM | 91 µM
COC1(C(=O)N[C@@H](C)c2ccc(-n3cc(F)cn3)nc2)CCC(c2nc(C)cc(Nc3cc(C)[nH]n3)n2)CC1 (some centres not stated) | 11.1 | 23.3 µM | 10.2 | 22.5 µM | 19.5 | 41.8 µM | 2.32 µM | 24.2 µM | 0.314 | 1.56 µM | 3.27 µM | > 100 | 2.31 | 22.4 µM | 3.83 µM | 23.7 µM | 0.222 µM | 11.7 µM | 3.74 µM | 17.7 µM
C[C@@H](C(=O)Nc1ccc(Cl)cc1)C1CCC(c2ccnc3ccc(F)cc23)CC1 (some centres not stated) | 4.35 | 24.3 µM | 10.4 | > 100 µM | 5.22 | 24.7 µM | 19 µM | > 100 µM | 11.8 | 47.7 µM | 5.1 µM | 67.4 | 5.81 | 40.4 µM | 8.8 µM | 34 µM | 13.7 µM | > 100 µM | 10.1 µM | 48 µM
CN1CCN(CCc2cccc(C(=O)c3cnn(-c4ccc(F)cc4)c3N)c2)CC1 | > 25 | > 25 µM | > 25 | > 25 µM | > 25 | > 25 µM | > 25 µM | > 25 µM | > 25 | > 25 µM | > 25 µM | > 25 | > 25 | > 25 µM | > 25 µM | > 25 µM | > 25 µM | > 25 µM | > 25 µM | > 25 µM
Nc1c(C(=O)Nc2cccc([N+](=O)[O-])c2)sc2nc3c(cc12)C(O)CCC3 (configuration not stated) | > 100 | > 100 µM | 16.9 | > 100 µM | 2.37 | > 100 µM | 3.48 µM | > 100 µM | 5.06 | > 93.7 µM | 0.852 µM | > 100 | 2.89 | > 100 µM | 3.51 µM | > 100 µM | 29.6 µM | > 100 µM | 4.72 µM | > 100 µM
CCCCOc1ccc(NC(N)=Nc2ccc(Cl)cc2)cc1 | – | 2.64 µM | – | 26.7 µM | – | 22.5 µM | – | 16.1 µM | – | 6.52 µM | – | 11.6 | – | 11.3 µM | – | 0.26 µM | – | 29 µM | – | 18.9 µM
